# Source: patent US20260176328A1, “ANTIBODY COMPOSITIONS AND METHODS FOR DISRUPTING NONTUBERCULOUS MYCOBACTERIA BIOFILMS” (priority 2022, published 2026)
# Columns and labels:
# Details in all cases: 2 hr; for Percent killing of NRel: NRel induced with 5 μg HuTipMab
# M. avium = assay: Antibiotic mediated killing of planktonic and newly released (NRel) M. avium
# Experimental: (§1) To determine relative susceptibility of planktonic NTM to amikacin, biofilms were prepared and gently washed twice with DPBS as described above, then treated with 200 μL of either: 7H9 (growth control); 7H9+0.5 μg amikacin/mL for M. abscessus 19977, +12 μg amikacin/mL for M. avium, +0.7 μg amikacin/mL for M. abscessus clinical isolate 1 or +lug amikacin/mL for M. abscessus clinical isolate 3. […] Treated biofilms were incubated statically at 37° C. in 5% CO2 and humidity for 2 hr, after which 150 μL was collected from each well and dispensed into 1.5 mL Eppendorf microcentrifuge tubes, then pulse-vortexed with two sterile 3 mm glass beads (Fisher Scientific International, Inc., Hampton, NH) to disrupt aggregates. Suspensions were gently sonicated for 2 min in a waterbath sonicator (Ultrasonic Bath 2.8 L, Fisher Scientific) to further disrupt any aggregates. After sonication, samples were diluted and plated on Middlebrook 7H10 agar and incubated at 37° C. with 5% CO2 in a humidified atmosphere to assess relative CFU.
# (§2) To determine azithromycin-mediated killing, the same protocol as above was used with one adjustment. […] Wells were treated with 200 μL of either: 7H9 (growth control); 7H9+5 μg azithromycin/mL for M. abscessus 19977, +16 μg azithromycin/mL for M. avium, +10 μg azithromycin/mL for M. abscessus clinical isolate 1, or +8 μg azithromycin/mL for M. abscessus clinical isolate 3. […] Percent killing was then calculated as [growth control CFU/mL-NRel or planktonic CFU/mL]/[growth control CFU/mL].
# [1] = system: M. abscessus clinical isolate 1; assay: Antibiotic mediated killing of planktonic and NRel M. abscessus clinical isolate 1
# Experimental: as §1, §2
# [2] = system: M. abscessus clinical isolate 3; assay: Antibiotic mediated killing of planktonic and NRel M. abscessus clinical isolate 3
# Experimental: as §1, §2
# M. abscessus 19977 = assay: Antibiotic mediated killing of planktonic and newly released (NRel) M. abscessus 19977
# Experimental: as §1, §2
Structure (SMILES),Percent killing of NRel (M. avium; 16 μg azithromycin/mL (½ MIC)),Percent killing of planktonic bacteria (M. avium; 16 μg azithromycin/mL (½ MIC)),Percent killing of NRel ([1]; 10 μg azithromycin/mL),Percent killing of planktonic bacteria ([1]; 10 μg azithromycin/mL),Percent killing of NRel ([2]; 8 μg azithromycin/mL),Percent killing of planktonic bacteria ([2]; 8 μg azithromycin/mL),Percent killing of NRel (M. abscessus 19977; 5 μg azithromycin/mL (½ MIC)),Percent killing of planktonic bacteria (M. abscessus 19977; 5 μg azithromycin/mL (½ MIC)),Percent killing of NRel (M. avium; 12 μg amikacin/mL (¼ MIC)),Percent killing of planktonic bacteria (M. avium; 12 μg amikacin/mL (¼ MIC)),Percent killing of NRel ([1]; 0.7 μg amikacin/mL),Percent killing of planktonic bacteria ([1]; 0.7 μg amikacin/mL),Percent killing of NRel ([2]; lug amikacin/mL),Percent killing of planktonic bacteria ([2]; lug amikacin/mL),Percent killing of NRel (M. abscessus 19977; 0.5 μg amikacin/mL (¼ MIC)),Percent killing of planktonic bacteria (M. abscessus 19977; 0.5 μg amikacin/mL (¼ MIC))
"CC[C@H]1OC(=O)[C@H](C)[C@@H](O[C@H]2C[C@@](C)(OC)[C@@H](O)[C@H](C)O2)[C@H](C)[C@@H](O[C@@H]2O[C@H](C)C[C@H](N(C)C)[C@H]2O)[C@](C)(O)C[C@@H](C)CN(C)[C@H](C)[C@@H](O)[C@]1(C)O [azithromycin, Azithromycin]",36%,19%,47%,28%,45%,25%,42%,20%,,,,,,,,
"NCC[C@H](O)C(=O)N[C@@H]1C[C@H](N)[C@@H](O[C@H]2O[C@H](CN)[C@@H](O)[C@H](O)[C@H]2O)[C@H](O)[C@H]1O[C@H]1O[C@H](CO)[C@@H](O)[C@H](N)[C@H]1O [amikacin, Amikacin]",,,,,,,,,41%,17%,45%,28%,47%,21%,61%,23%
